Measurements reported in patent US20240122865A1, “Methods of Protecting RNA” (Pfizer Inc., priority 2021, published 2024).

Columns and labels:
Type in all cases: biochemical, Trichoderma atroviride
FgenL model RNA [1] = assay: TapeStation Assay, FgenL model RNA; set-up: Conc. FgenL#1 / Conc. FgenL#2: unit not given here; settings: for % Control N = 1 / % Control N = 2 / % Control Average: FgenL RNA, 20 mM amino acids, 50 mM CAPS pH 11, 50° C. 15 min; for % Control N = 1 / % Control N = 2: vs Time 0; for % Control Average: vs Time 0, Avg N=2; for Conc. FgenL#1 / Conc. FgenL#2: intact FgenL RNA after 15 min at 50° C.; for Conc. FgenL#1: 20 mM amino acids in 50 mM CAPS pH 11, run #1; for Conc. FgenL#2: 20 mM amino acids in 50 mM CAPS pH 11, run #2
Protocol: (§1) These assays were performed with amino acids and compared to a no-degradation baseline control to gauge degree of protection imparted by the amino acid. Multiple functional assay approaches were used where differing endpoints were measured including a droplet digital PCR (ddPCR) assay where intact RNA sequence was quantitated, a size exclusion base hydrolysis degradation assay that used a size exclusion column to determine the degree of degradation occurring to an mRNA construct, and finally, a TapeStation assay that utilizes capillary electrophoresis and optical detection to measure intact RNA. […] Affinity selection by mass spectrometry (ASMS), native electrospray ionization mass spectrometry (nESI-MS) and nuclear magnetic resonance (NMR) may be used as several complementary approaches to ascertain compound binding to RNA. The latter techniques utilize MS to measure mass of bound compound alone (ASMS), or mass of RNA and bound compound (nESI-MS). The nESI-MS and NMR studies may be conducted to provide direct analytical quantification of resulting complex via measurement of mass (nESI-MS) or chemical shifts (NMR). The ASMS experiment is conducted to determine saturation binding of the compound to RNA where resulting apparent binding constants (KD,App) may be generated. Further descriptions of the functional and binding assays are provided in the section below.
(§2) In principle, samples are loaded to the instrument where electrophoresis separates component RNA's on the basis of mass, and subsequently analyzes these optically as they travel through the capillary.
(§3) RNA samples were diluted to the appropriate concentration to fall within the linear range of detection for the RNA ScreenTape Assay. Model Chi18 or FgenL RNAs were diluted to 50 ng/μL in 50 mM CAPS buffer pH 11. Amino acid stocks were made up in 50 mM CAPS pH 11 and re-adjusted to >pH 11 after solubilization. […] The samples were aliquoted to PCR tubes for each time point (Time 0 or 15 minutes). Degradation reaction: Samples were incubated at 50° C. for 0 to 15 minutes in a thermocycler, removed at the appropriate time point and placed on ice. Time 0 samples remained on ice.

Chi18 model RNA [2] = assay: TapeStation Assay, Chi18 model RNA; set-up: Conc. chi18#1 / Conc. chi18#2: unit not given here; settings: for % Control N = 1 / % Control N = 2 / % Control Avg.: Chi18 RNA, 20 mM amino acids, 50 mM CAPS pH 11, 50° C. 15 min; for % Control N = 1 / % Control N = 2: vs Time 0; for % Control Avg.: vs Time 0, Avg N=2; for Conc. chi18#1: 20 mM amino acids in 50 mM CAPS pH 11, run #1
Protocol: as §1, §2, §3

Chi18 model RNA [3] = assay: Droplet Digital Polymerase Chain Reaction (ddPCR) Assay, Chi18; settings: percent protection, pH 11.0, 30° C., 16 hours, n = 2
Protocol: (§4) The ddPCR assays measure RNA integrity by converting intact RNA to cDNA by reverse transcription, then performing digital PCR in thousands of nanoliter-sized droplets for each sample. PCR is performed within each droplet, which allows for more sensitive detection of subtle changes in RNA concentration compared to traditional PCR or qPCR. Additionally, primers/probes specific to the 5′ end of the RNA/cDNA transcript(s) are used to assess fragment integrity—e.g. degraded RNA will have fewer 5′ positive droplets. The BioRad QX200 Droplet Digital PCR System was used for the ddPCR workflow.
(§5) Basic assay procedure: RNA samples (Chi18 or FgenL fragments) were diluted to 25 fg/μL or 10 fg/μL, respectively, in 50 mM […] buffer pH 11.0. Amino acid stocks were made up in 50 mM CAPS buffer, pH 11.0 and subsequently re-adjusted to pH 11.0, post solubilization. Amino acid stocks were tested in a dose-response format to determine EC50. An amino acid dilution plate containing a ˜300 mM (or appropriate) top-concentration of amino acid in 50 mM CAPS buffer was serially (half-log) diluted for 10 times. 0.6 μL of this compound dilution plate was spotted into a 96-well PCR plate (Thermo). Sample RNAs were added (6 μL) and incubated with test amino acid as described below.
(§6) Degradation reaction: Treated RNAs were incubated for 16 hours at 30° C. for Chi18 samples or 44° C. for FgenL samples. Upon completion of the degradation reaction, cDNA was made from the intact RNA by Reverse Transcription and ddPCR run for each sample (96 well plates). Positive 5′ droplet values were divided by the total accepted droplet values for each sample and a ratio value generated for each sample.
(§7) EC50 was determined by using a four parameter logistic equation: Y=A+((B−A)/(1+(C/X)D)); where Y is percent protection, X is compound concentration, A and B are minimum and maximum asymptotes, respectively, C is EC50, and D is Hill slope.

FgenL model RNA [4] = settings: percent protection, pH 11.0, 44° C., 16 hours, n = 2
Protocol: as §4, §5, §6, §7

[5] = intact Chi18 RNA after 15 min at 50° C.

Row | Structure (SMILES) | % Control N = 1 (FgenL model RNA [1]) [%] | % Control N = 2 (FgenL model RNA [1]) [%] | % Control Average (FgenL model RNA [1]) [%] | Conc. FgenL#1 (FgenL model RNA [1]) | Conc. FgenL#2 (FgenL model RNA [1]) | % Control N = 1 (Chi18 model RNA [2]) [%] | % Control N = 2 (Chi18 model RNA [2]) [%] | % Control Avg. (Chi18 model RNA [2]) [%] | Conc. chi18#1 (Chi18 model RNA [2]; [5]) | Conc. chi18#2 (Chi18 model RNA [2]; intact Chi18 RNA after 15 min at 50° C., 20 mM amino acids in 50 mM CAPS pH 11, run #2) | EC50 (Chi18 model RNA [3]) [mM] | EC50 (FgenL model RNA [4]) [mM]
1 | O[C@H](CS)[C@H](O)CS (racemic) [DTT, dithiothreitol] | 8.3 | 9.0 | 8.7 | 2.86 | 3.13 | 10.7 | 10.7 | 10.7 | 5.68 |  |  | 
2 | N[C@@H](CSSC[C@H](N)C(=O)O)C(=O)O [Cystine] | 75.9 | 64.6 | 70.2 | 26.2 | 22.4 | 53.1 | 42.7 | 47.9 | 28.3 | 22.6 | > 29 | > 30
3 | O=C(O)CCP(CCC(=O)O)CCC(=O)O [TCEP, tris(2-carboxyethyl)phosphine] | 5.0 | 4.0 | 4.5 | 1.71 | 1.38 | 2.6 | 2.6 | 2.6 | 1.41 |  | > 30 | > 30
